Paper PMC11597353, “Synthesis of Novel Gefitinib-Conjugated 1,2,3-Triazole Derivatives and Their Effect of Inducing DNA Damage and Apoptosis in Tumor Cells” (Molecules, 2024)

How the values were obtained:
HepG2 cells [1] = test: DAPI staining for apoptotic morphology; assay type: cell-based, human; conditions: HepG2, 2, 4, 8 μM, 48 h
Experimental: To confirm the apoptosis-inducing activity of 11m and 11t in liver cancer cells, HepG2 cells were treated with different concentrations of compounds 11m and 11t for 48 h, followed by DAPI staining.
HepG2 cells were seeded in 48-well plates and incubated for 24 h, then treated with different concentrations of 11m and 11t (2, 4, and 8 μM) for 48 h. After removing the original culture medium, the cells were washed with PBS and fixed with 4% paraformaldehyde at room temperature for 20 min. After washing with PBS, the cells were stained with DAPI (10 μg/mL) in the dark at room temperature for 5 min. After washing with PBS, apoptotic morphological changes were observed using a fluorescence microscope.

HepG2 cells [2] = test: Colony formation assay; assay type: cell-based, human; conditions: 7 days
Experimental: A colony formation assay is used to assess the ability of adherent cells to proliferate and form cell colonies on a plate, making it one of the key methods for evaluating cell proliferation. We also employed the colony formation assay to further confirm that compounds 11m and 11t can inhibit liver cancer cell proliferation (as shown in Figure 5). HepG2 cells were treated with low, medium, and high concentrations (2, 4, and 8 μmol/L) of the compounds for 7 days, followed by counting the number of cell colonies and analyzing the proliferation inhibition rate.
HepG2 cells were seeded in 6-well plates at a density of 500 cells per well and incubated at 37 °C for 24 h, followed by treatment with 11m or 11t (2, 4, and 8 μM) for 24 h. The medium was then replaced with fresh culture medium, and after 7 days, the culture medium was removed and washed with PBS. Cells were fixed with 4% paraformaldehyde at room temperature for 20 min, stained with 0.1% crystal violet staining solution at room temperature for 20 min, and excess staining solution was washed off with distilled water. The plates were dried at 37 °C, photographed, and the number of colonies was counted using ImageJ.

HepG2 cells [3] = test: Scratch wound healing assay; assay type: cell-based, human
Source text: To investigate the effect of the compounds on the migration of wild-type liver cancer cells, we conducted wound healing and Transwell assays to assess changes in the migration ability of HepG2 cells after treatment with compounds 11m and 11t. […] The Transwell migration assay, another important method for evaluating cell migration, involves seeding tumor cells in a chamber and assessing their migration ability by counting the number of cells that pass through the membrane. […] These findings indicate that compounds 11m and 11t can inhibit the migration ability of liver cancer cells in a concentration-dependent manner.
HepG2 cells were seeded in 24-well plates, and when the cell density reached 95%, a vertical scratch was made along the edge of the plate cover using a yellow pipette tip. After washing with PBS, images of the scratches were taken at 0 h under a microscope, and each well was treated with 11m or 11t (0, 2, 4, and 8 μM) and incubated in a cell culture incubator. Images were taken at 12, 24, and 48 h after the scratch was made.

p-H2AX in HepG2 cells = test: DNA damage immunofluorescence and Western blot of p-H2AX; assay type: cell-based, human; conditions: HepG2, 2, 4, 8 μM
Experimental: Previous studies have reported that the phosphorylation of H2AX is a highly specific and sensitive molecular marker of DNA damage. To determine whether the inhibitory effects of compounds 11m and 11t on HepG2 cells are related to p-H2AX, we conducted immunofluorescence and Western blot analyses.
HepG2 cells were seeded in laser confocal culture dishes (Nest, Wuxi, China) and incubated for 24 h, followed by treatment with 11m or 11t (2, 4, and 8 μM) for 24 h. After washing with PBS, cells were fixed with 4% paraformaldehyde at room temperature for 20 min. After washing with PBS, cells were permeabilized with 0.5% Triton X-100 for 20 min, followed by further washing with PBS. Cells were then blocked with goat serum at room temperature for 1 h, followed by incubation with p-H2AX (Cell Signaling Technology, Beverly, MA, USA) at a dilution of 1:500 overnight at 4 °C. After washing with PBS, cells were incubated with Cy3 (Proteintech, Wuhan, China) at a dilution of 1:100 in the dark at room temperature for 1 h. After washing with PBS, nuclei were stained with DAPI for 5 min. Cells were observed and imaged using an oil immersion lens under a laser confocal microscope (Nikon, Tokyo, Japan).
HepG2 cells were seeded in 6-well plates and incubated for 24 h. […] Protein supernatants were mixed with loading buffer, denatured at 100 °C for 10 min, and quantified using BCA. […]

[4] = tested on: Bcl-2/Caspase-3/PARP signaling pathway; test: Western blot of apoptosis-related proteins in HepG2 cells; assay type: cell-based, human; conditions: 48 h; for expression level of Bcl-2 / expression level of Caspase-3 / expression level of Caspase-9 / expression level of PARP / level of cleaved Caspase-3 / level of cleaved PARP: HepG2, 2, 4, 8 μM; for expression of Bax: HepG2, with increasing drug concentration
Source text: We conducted an in-depth study on the mechanisms of apoptosis induced by compounds 11m and 11t (Figure 9). The Bcl-2 protein family is located upstream in the apoptosis signaling pathway, with Bcl-2 exerting anti-apoptotic and pro-proliferative effects by inhibiting the release of cytochrome C (cyt-c) from the mitochondria. Previous studies have reported that many anticancer drugs exert pro-apoptotic effects by downregulating Bcl-2. When apoptosis occurs, the expression level of Bcl-2 is suppressed, cyt-c is released, and it binds to apoptotic protease activating factor (Apaf-1) to form the apoptosome, triggering a cascade reaction involving the Caspase family proteins. The apoptosome first promotes the activation of Caspase-9, which in turn activates Caspase-3, forming cleaved Caspase-3. Cleaved Caspase-3 further activates downstream PARP proteins, ultimately promoting apoptosis. […] After treating HepG2 cells with different concentrations of the compounds for 48 h, we extracted cellular proteins and used Western blotting to detect changes in the expression of apoptosis-related proteins. […] The expression levels of Caspase-3, Caspase-9, and PARP decreased with increasing drug concentration, whereas the levels of cleaved Caspase-3 and cleaved PARP increased.
HepG2 cells were seeded in 6-well plates and incubated for 24 h. They were then treated with 11m or 11t at concentrations of 2, 4, or 8 μM for 48 h. The cells were harvested, and cytoplasmic and nuclear proteins were extracted using cell lysis buffer from Beyotime Biotechnology (Shanghai, China). Protein supernatants were mixed with loading buffer, denatured at 100 °C for 10 min, and quantified using BCA. Equal amounts of protein, along with molecular weight markers, were loaded onto a 12% SDS-PAGE gel and separated by electrophoresis for 2 h. The separated proteins were transferred onto NC membranes, and nonspecific binding sites on the membranes were blocked with 5% skim milk. Membranes were incubated with primary antibodies overnight at 4 °C, followed by incubation with HRP-conjugated secondary antibodies (goat anti-rabbit or goat anti-mouse IgG) at room temperature for 2 h. Protein bands were visualized on NC membranes using ECL ultra-sensitive chemiluminescence solution and a Bio-Rad gel imaging and analysis system.

normal liver cells (L02) = test: CCK8 toxicity against normal liver cells (L02); conditions: Figure 3

Row | Structure (SMILES) | apoptotic morphological changes (DAPI staining) (HepG2 cells [1]) | colony formation in HepG2 cells (HepG2 cells [2]; 4 μM) | colony formation in HepG2 cells (HepG2 cells [2]; 8 μM) | wound-healing rate (HepG2 cells [3]; HepG2, 2 μM, 12 h) | wound-healing rate (HepG2 cells [3]; HepG2, 2 μM, 24 h) | wound-healing rate (HepG2 cells [3]; HepG2, 2 μM, 48 h) | wound-healing rate (HepG2 cells [3]; HepG2, 4 μM, 12 h) | wound-healing rate (HepG2 cells [3]; HepG2, 4 μM, 24 h) | wound-healing rate (HepG2 cells [3]; HepG2, 4 μM, 48 h) | wound-healing rate (HepG2 cells [3]; HepG2, 8 μM, 12 h) | wound-healing rate (HepG2 cells [3]; HepG2, 8 μM, 24 h) | wound-healing rate (HepG2 cells [3]; HepG2, 8 μM, 48 h) | expression of p-H2AX (p-H2AX in HepG2 cells) | expression level of Bcl-2 [4] | expression level of Caspase-3 [4] | expression level of Caspase-9 [4] | expression level of PARP [4] | level of cleaved Caspase-3 [4] | level of cleaved PARP [4] | expression of Bax [4] | further results
1 | COc1cc2ncnc(Nc3cccc(-c4cn(Cc5ccc(I)cc5)nn4)c3)c2cc1OCCCN1CCOCC1 [Compound 11m, N-(3-(1-(4-iodobenzyl)-1H-1,2,3-triazol-4-yl)phenyl)-7-methoxy-6-(3-morpholinopropoxy)quinazolin-4-amine] | typical apoptotic characteristics | began to noticeably inhibit colony formation | almost completely suppressed | 14.32% | 20.33% | 41.13% | 13.89% | 20.60% | 36.35% | 8.96% | 16.39% | 18.48% | increased | decreased | decreased | decreased | decreased | increased | increased | increased | toxicity against normal liver cells (L02) (normal liver cells (L02)): favorable safety profile
2 | COc1cc2ncnc(Nc3cccc(-c4cn(Cc5cccc(I)c5)nn4)c3)c2cc1OCCCN1CCOCC1 [Compound 11t, N-(3-(1-(3-iodobenzyl)-1H-1,2,3-triazol-4-yl)phenyl)-7-methoxy-6-(3-morpholinopropoxy)quinazolin-4-amine] | typical apoptotic characteristics | began to noticeably inhibit colony formation | almost completely suppressed | 11.03% | 16.02% | 35.36% | 14.18% | 25.67% | 33.66% | 9.87% | 13.26% | 19.54% | increased | decreased | decreased | decreased | decreased | increased | increased | increased | toxicity against normal liver cells (L02) (normal liver cells (L02)): favorable safety profile
